In patent US7579349B2, “4-(pyrazol-3-ylamino) pyrimidine derivatives for use in the treatment of cancer” (AstraZeneca AB, priority 2003, dated 2009):

Tested on: murine fibroblasts (NIH3T3) over-expressing human IGF-1 receptor
Test: Inhibition of IGF-stimulated cell proliferation (BrdU incorporation), Test (c)
Type: cell-based
Conditions: inhibition of IGF-stimulated proliferation in NIH3T3 over-expressing human IGF-1 receptor
Experimental: c) Inhibition of IGF-stimulated Cell Proliferation
The construction of murine fibroblasts (NIH3T3) over-expressing human IGF-1 receptor has been described by Lammers et al (EMBO J, 8, 1369-1375, 1989). These cells show a proliferative response to IGF-I which can be measured by BrdU incorporation into newly synthesised DNA. Compound potency was determined as causing inhibition of the IGF-stimulated proliferation in the following assay:
Compounds are initially dissolved in DMSO to 10 mM, followed by dilutions in DMEM+1% FCS+glutamine to give a range from […] in 1-0.00045% DMSO final concentration in assay well.
Exponentially growing NIH3T3/IGFR cells were harvested and seeded in complete growth medium into a flat-bottomed 96 well tissue culture grade plate (Costar 3525) at 1.2×10^4 cells per well in a volume of 100 μl.
Growth medium was carefully removed from each well using a multi-channel pipette. Wells were carefully rinsed three times with 200 μl with HBSS. 100 μl of starvation medium was added to each well and the plate was re-incubated for 24 hours.
50 μl of a 4× concentrate of test compound was added to appropriate wells. Cells were incubated for 30 minutes with compound alone before the addition of IGF. For cells treated with IGF, an appropriate volume (i.e. 25 μl) of starvation medium was added to make a final volume per well up to 200 μl followed by 25 μl of IGF-1 at 160 ng/ml (to give a final concentration of 20 ng/ml). […] The plate was re-incubated for 20 hours.
The incorporation of BrdU in the cells (after a 4 h incorporation period) was assessed using the BrdU Cell Proliferation Elisa according to the manufacturer's protocol.

Clc1cnc(N2CCCC2c2cc(C3CC3)no2)nc1Nc1cc(C2CC2)[nH]n1 (stereo not shown) [Example 5, 5-Chloro-2-[2-(3-cyclopropylisoxazol-5-yl]pyrrolidin-1-yl]-4-(5-cvlopropyl-1H-pyrazol-3-ylamino)phyrimidine]
IC50: 0.13 µM

Cc1cc(Nc2cc(C(F)(F)F)nc(N3CCCC3c3cc(-c4ccccn4)no3)n2)n[nH]1 (stereo not shown) [Example 35, 4-(5-Methyl-1H-pyrazol-3-ylamino)-2-{2-[3-(pyrid-2-yl)isoxazol-5-yl]pyrrolidin-1-yl}-6-trifluoromethylpyrimidine]
IC50 (Mus musculus): 0.56 µM

Cc1cc(Nc2ccnc(N3CCCC3c3cc(-c4ccccn4)no3)n2)n[nH]1 (stereo not shown) [Example 23, 4-(5-Methyl-1H-pyrazol-3-ylamino)-2-{2-[3-(pyrid-2-yl)isoxazol-5-yl]pyrrolidin-1-yl}pyrimidine]
IC50 (Mus musculus): 0.11 µM

Cc1cc(Nc2nc(N3CCC[C@H]3c3cc(-c4nccs4)no3)ncc2Cl)n[nH]1 [Example 38, S-5-Chloro-2-{2-[3-(thiazol-2-yl)isoxazol-5-yl]pyrrolidin-1-yl}-4-(5-methyl-1H-pyrazol-3-ylamino)pyrimidine]
IC50: 0.054 µM
